Laboratory results from patent US20130197027A1, “HETEROCYCLYL-AZABICYCLO[3.2.1]OCTANE ANALOGS AS SELECTIVE M1 AGONISTS AND METHODS OF MAKING AND USING SAME” (priority 2010, published 2013).
Substitutions are numbered along the chain they refer to. Like-named read-outs stand apart in the source and are kept apart here.

Assays:
hM1 = target: T1, hM1 (Homo sapiens, UniProt P11229); assay: Calcium mobilization assay in CHO-K1 cells stably expressing human M1 (high throughput, FDSS 6000); format: cell-based; settings: for Emax: HM1, read-out: Efficacy (% Max ACh)
T1 construct: host or cells: CHO-K1
T1 sequence (P11229 1-460): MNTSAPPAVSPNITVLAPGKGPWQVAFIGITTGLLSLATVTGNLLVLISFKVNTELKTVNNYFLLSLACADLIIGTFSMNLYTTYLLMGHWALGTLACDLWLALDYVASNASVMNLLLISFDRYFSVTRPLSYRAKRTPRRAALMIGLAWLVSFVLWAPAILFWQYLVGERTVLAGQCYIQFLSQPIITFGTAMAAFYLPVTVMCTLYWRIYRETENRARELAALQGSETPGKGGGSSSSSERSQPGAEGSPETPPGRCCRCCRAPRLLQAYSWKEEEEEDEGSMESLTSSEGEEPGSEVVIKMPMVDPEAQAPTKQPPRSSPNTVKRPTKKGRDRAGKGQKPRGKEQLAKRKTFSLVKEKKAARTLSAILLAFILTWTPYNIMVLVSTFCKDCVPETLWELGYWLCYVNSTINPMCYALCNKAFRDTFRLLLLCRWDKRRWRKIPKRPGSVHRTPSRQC
From the text: (§1) Chinese hamster ovary (CHO-K1) cells stably expressing rat (r) M1 were purchased from the American Type Culture Collection and cultured according to their indicated protocol. CHO cells stably expressing human (h)M2, hM3, and hM5 were described previously (Levey et al., 1991); hM1 and hM4 cDNAs were purchased from Missouri S&T cDNA Resource; rM4 cDNA was provided by T. I. Bonner (National Institutes of Health, Bethesda, Md.). hM1, hM4, and rM4 cDNAs were used to stably transfect CHO-K1 cells purchased from the American Type Culture Collection using Lipofectamine2000. To make stable hM2, hM4 and rM4 cell lines for use in calcium mobilization assays, these cells also were stably transfected with a chimeric G-protein (Gqi5) (provided by B. R. Conklin, University of California, San Francisco) using Lipofectamine 2000. rM1, hM3, and hM5 cells were grown in Ham's F-12 medium containing 10% heat-inactivated fetal bovine serum (FBS), 20 mM HEPES, and 50 μg/mL G418 sulfate. hM2-Gqi5 and hM4-Gqi5 cells were grown in the same medium also containing 500 μg/mL Hygromycin B. Stable rM4-Gqi5 cells were grown in DMEM containing 10% heat-inactivated FBS, 20 mM HEPES, 400 μg/mL G418 sulfate, and 500 μg/mL Hygromycin B. The rat M1 Y381A orthosteric mutant receptor cDNA was generated using the Quik-Change site-directed mutagenesis kit (Stratagene) and verified by sequencing. CHO-K1 cells were stably transfected with this cDNA using Lipofectamine2000 and screened for expression based on calcium mobilization in response to the allosteric M1 agonist N-desmethylclozapine.
For high throughput measurement of agonist-evoked increases in intracellular calcium, CHO-K1 cells stably expressing muscarinic receptors were plated in growth medium lacking G418 and hygromycin at 15,000 cells/20 μL/well (hM1, hM2-Gqi5, hM3, hM4-Gqi5, and hM5) in Greiner 384-well black-walled, tissue culture (TC)-treated, clear-bottom plates (VWR). Cells were incubated overnight at 37° C. and 5% CO2. The next day, cells were washed using an ELX 405 (BioTek) with three washes (50 μL) of assay buffer then aspirated to 15 μL. Next, 5 μL of 8 μM Fluo-4/acetoxymethyl ester (Invitrogen, Carlsbad, Calif.) prepared as a 2.3 mM stock in DMSO and mixed in a 1:1 ratio with 10% (w/v) Pluronic F-127 and diluted in assay buffer was added to the wells and the cell plates were incubated for 45 min at 37° C. and 5% CO2. Dye was removed by washing with the ELX 405 (three 50 μL washes of assay buffer) then aspirated to 20 μL. Agonist and compound master plates were formatted in an 11 point CRC format (1:3 dilutions) in 100% DMSO with a starting concentration of 10 mM using the BRAVO liquid handler (Agilent). Test compound CRCs were then transferred to daughter plates ([…]) using the Echo acoustic plate reformatter (Labcyte, Sunnyvale, Calif.) and then diluted into assay buffer (40 μL) to a 2× stock using a Thermo Fisher Combi (Thermo Fisher Scientific, Waltham, Mass.). Calcium flux was measured using the Functional Drug Screening System (FDSS) 6000 (Hamamatsu Corporation, Tokyo, Japan) as an increase in the fluorescent static ratio. 20 μL of Agonist Compounds were applied to cells using the automated system of the FDSS 6000 at 4 s into the 300 s protocol and the data were collected at 1 Hz. Concentration-response curves were generated using a four-parameter logistical equation in XLfit curve fitting software (IDBS, Bridgewater, N.J.) for Excel (Microsoft, Redmond, Wash.) or Prism (GraphPad Software, Inc., San Diego, Calif.).

rM1 = target: T2, rM1 (Rattus norvegicus, UniProt P08482); assay: Calcium mobilization assay in CHO-K1 cells stably expressing rat M1 (low throughput, Flexstation II); format: cell-based; settings: for Emax: RM1, read-out: Efficacy (% Max ACh)
T2 construct: host or cells: CHO-K1
T2 sequence (P08482 1-460): T1 sequence (P11229 1-460) with A5V, T254S, P309S, R320K, A337G, I413V
From the text: as §1
For low throughput measurement of agonist-evoked increases in intracellular calcium, CHO-K1 cells stably expressing muscarinic receptors were plated in 100 μL of growth medium at 5×10^4 (rM1, hM3, and hM5) or 6×10^4 cells per well (rM1 Y381A, hM2, and rM4) in Costar 96-well black-walled, tissue culture (TC)-treated, clear-bottom plates (Fisher). Cells were incubated overnight at 37° C. and 5% CO2. The next day, medium was removed from the cells, and they were incubated with 50 μL of 2 μM Fluo-4/acetoxymethyl ester (Invitrogen, Carlsbad, Calif.) prepared as a 2.3 mM stock in DMSO and mixed in a 1:1 ratio with 10% (w/v) Pluronic F-127 and diluted in assay buffer [HBSS (Invitrogen) supplemented with 20 mM HEPES and 2.5 mM probenecid, pH 7.4] for 1 h at 37° C. and 5% CO2. Dye was removed and replaced with 50 μL of assay buffer. For calcium fluorescence measurements, CRCs of compounds (50 μl, 2×) were added 19 s after the beginning of data collection via a Flexstation II (Molecular Devices, Sunnyvale, Calif.). Fluorescence imaging continued for a total of 130 s acquisition time using an excitation wavelength of 488 nm, an emission wavelength of 525 nm, and a cutoff wavelength of 515 nm. All of the peaks of the calcium response were normalized to the response to a maximally effective concentration of ACh (ECmax). These normalized peak calcium response values were fit using GraphPad Prism version 4.0 to a four-parameter logistic equation to determine EC50 values.

[1] = agonist-evoked calcium mobilization, CHO-K1 hM1 cells, read-out: hM1 Potency (EC50)
[2] = agonist-evoked calcium mobilization, CHO-K1 rM1 cells, read-out: rM1 Potency (EC50)

Row | Structure (SMILES) | Emax (hM1) [%] | EC50 (hM1; [1]) [nM] | EC50 (rM1) [nM] | Emax (rM1) [%] | EC50 (hM1) [nM] | EC50 (rM1; [2]) [nM]
1 | CCOC(=O)N1C2CCC1CC(N1CCC[C@@H](NC(=O)c3ccc(F)cc3Cl)C1)C2 (stereo partly drawn) [Example 14, ethyl 3-((R)-3-(2-chloro-4-fluorobenzamido)piperidin-1-yl)-8-azabicyclo[3.2.1]octane-8-carboxylate] | 68 | 620 |  |  |  | 
2 | CCOC(=O)N1C2CCC1CC(N1CCC[C@@H](NC(=O)c3ccccc3F)C1)C2 (stereo partly drawn) [Example 13, ethyl 3-((R)-3-(2-fluorobenzamido)piperidin-1-yl)-8-azabicyclo[3.2.1]octane-8-carboxylate] | 38 | 4200 |  |  |  | 
3 | CCOC(=O)N1C2CCC1CC(N1CCC[C@@H](NC(=O)c3ccc(F)c(C)c3)C1)C2 (stereo partly drawn) [Example 8, ethyl 3-((R)-3-(4-fluoro-3-methylbenzamido)piperidin-1-yl)-8-azabicyclo[3.2.1]octane-8-carboxylate] |  |  | 48 | 93 |  | 
4 | CCOC(=O)N1C2CCC1CC(N1CCC[C@@H](NC(=O)c3ccccc3C)C1)C2 (stereo partly drawn) [Example 2, ethyl 3-((R)-3-(2-methylbenzamido)piperidin-1-yl)-8-azabicyclo[3.2.1]octane-8-carboxylate] | 88 |  | 5 | 94 | 53 | 
5 | CCOC(=O)N1C2CCC1CC(N1CCC[C@@H](NC(=O)c3ccccc3)C1)C2 (stereo partly drawn) [Example 3, ethyl 3-((R)-3-benzamidopiperidin-1-yl)-8-azabicyclo[3.2.1]octane-8-carboxylate] | 79 | 1600 |  | 93 |  | 112
6 | CCOC(=O)N1C2CCC1CC(N1CCC[C@@H](NC(=O)c3cccc(OC)c3)C1)C2 (stereo partly drawn) [Example 4, ethyl 3-((R)-3-(3-methoxybenzamido)piperidin-1-yl)-8-azabicyclo[3.2.1]octane-8-carboxylate] | 76 |  | 52 | 94 | 250 | 
7 | CCOC(=O)N1C2CCC1CC(N1CCC[C@@H](NC(=O)c3cccc(C)c3)C1)C2 (stereo partly drawn) [Example 6, ethyl 3-((R)-3-(3-methylbenzamido)piperidin-1-yl)-8-azabicyclo[3.2.1]octane-8-carboxylate] |  |  | 41 | 94 |  | 
8 | CCOC(=O)N1C2CCC1CC(N1CCC[C@@H](NC(=O)c3c(F)cccc3F)C1)C2 (stereo partly drawn) [Example 15, ethyl 3-((R)-3-(2,6-difluorobenzamido)piperidin-1-yl)-8-azabicyclo[3.2.1]octane-8-carboxylate] | 66 | 330 |  |  |  | 
9 | CCOC(=O)N1C2CCC1CC(N1CC[C@@H](NC(=O)c3ccccc3C)C1)C2 (stereo partly drawn) [Example 16, ethyl 3-((R)-3-(2-methylbenzamido)pyrrolidin-1-yl)-8-azabicyclo[3.2.1]octane-8-carboxylate] | 57 | 940 |  |  |  | 
10 | CCOC(=O)N1C2CCC1CC(N1CC[C@@H](NC(=O)c3ccccc3)C1)C2 (stereo partly drawn) [Example 17, ethyl 3-((R)-3-benzamidopyrrolidin-1-yl)-8-azabicyclo[3.2.1]octane-8-carboxylate] | 54 | 160 |  |  |  | 
11 | CCOC(=O)N1C2CCC1CC(N1CCC[C@@H](NC(=O)c3ccc(F)cc3F)C1)C2 (stereo partly drawn) [Example 5, ethyl 3-((R)-3-(2,4-difluorobenzamido)piperidin-1-yl)-8-azabicyclo[3.2.1]octane-8-carboxylate] |  |  | 69 | 89 |  | 
12 | CCOC(=O)N1C2CCC1CC(N1CCC[C@@H](NC(=O)OC(C)(C)C)C1)C2 (stereo partly drawn) [Example 1, ethyl 3-((R)-3-((tert-butoxycarbonyl)amino)piperidin-1-yl)-8-azabicyclo[3.2.1]octane-8-carboxylate] | 29 | 2000 |  | 74 |  | 267
13 | CCOC(=O)N1C2CCC1CC(N1CCC[C@@H](NC(=O)c3cc(Cl)ccc3F)C1)C2 (stereo partly drawn) [Example 11, ethyl 3-((R)-3-(5-chloro-2-fluorobenzamido)piperidin-1-yl)-8-azabicyclo[3.2.1]octane-8-carboxylate] |  |  |  | 65 |  | 590
14 | CCOC(=O)N1C2CCC1CC(N1CCC[C@@H](NC(=O)c3cc(F)cc(F)c3)C1)C2 (stereo partly drawn) [Example 10, ethyl 3-((R)-3-(3,5-difluorobenzamido)piperidin-1-yl)-8-azabicyclo[3.2.1]octane-8-carboxylate] |  |  | 96 | 90 |  | 
15 | CCOC(=O)N1C2CCC1CC(N1CCC[C@@H](NC(=O)c3ccc(F)cc3)C1)C2 (stereo partly drawn) [Example 9, ethyl 3-((R)-3-(4-fluorobenzamido)piperidin-1-yl)-8-azabicyclo[3.2.1]octane-8-carboxylate] |  |  | 38 | 95 |  | 
16 | CCOC(=O)N1C2CCC1CC(N1CCC[C@@H](NC(=O)c3ccc(F)c(F)c3)C1)C2 (stereo partly drawn) [Example 12, ethyl 3-((R)-3-(3,4-difluorobenzamido)piperidin-1-yl)-8-azabicyclo[3.2.1]octane-8-carboxylate] | 68 | 750 |  |  |  | 
